# Laboratory results as given in patent US8076352B2, “Administration of carboline derivatives useful in the treatment of cancer and other diseases” (PTC Therapeutics, Inc., priority 2004, dated 2011).
# Test system: hypoxia-inducible endogenous VEGF expression in HeLa cells
# Assay: Hypoxia-inducible endogenous VEGF expression, VEGF ELISA of conditioned media (dose-response EC50)
# Format: cell-based
# Conditions: HeLa cells under hypoxic conditions
# Experimental: The ability of the compounds of the invention to modulate hypoxia-inducible endogenous VEGF expression may be analyzed as follows. VEGF protein levels may be monitored by an ELISA assay (R&D Systems). Briefly, HeLa cells may be cultured for 24-48 hours under hypoxic conditions (1% O2, 5% CO2, balanced with nitrogen) in the presence or absence of a compound of the invention. The conditioned media may then be assayed by ELISA, and the concentration of VEGF calculated from the standard ELISA curve of each assay.
# A dose-response analysis may be performed using the ELISA assay and conditions described above. The conditions for the dose-response ELISA are analogous to those described above. A series of, e.g., seven different concentrations may be analyzed. […] Dose-response curves may be plotted using percentage inhibition versus concentration of the compound, and EC50 and CC50 values may be generated for each compound with the maximal inhibition set as 100% and the minimal inhibition as 0%.
row,EC50,SMILES
1,0.008 to 0.04 µM,CCOC(=O)N1CCc2c([nH]c3ccc(Br)cc23)C1c1ccc([N+](=O)O)cc1 (centres unmarked) [Compound 59]

# Same assay, conditions: HeLa cells, hypoxic conditions (1% O2)
row,EC50,SMILES
1,< 0.008 µM,COc1ccc(C2c3[nH]c4ccc(Cl)cc4c3CCN2C(=O)Oc2ccc(F)cc2)cc1 (centres unmarked) [Compound 410]

# Same assay, conditions: Homo sapiens, HeLa cells under hypoxic conditions
row,SMILES,EC50
1,Fc1ccc2[nH]c3c(c2c1)CCNC3c1ccc(Br)cc1 (centres unmarked) [Compound 256],> 1 µM
2,Clc1ccc(C2NCCc3c2[nH]c2ccc(Cl)cc32)cc1 (centres unmarked) [Compound 190],0.2 to 1 µM
3,COc1ccc(C2NCCc3c2[nH]c2ccc(OCc4ccccc4)cc32)cc1 (centres unmarked) [Compound 292],> 1 µM
4,Cc1ccc2[nH]c3c(c2c1)CCN(c1ncccn1)C3c1ccc(C(C)C)cc1 (centres unmarked) [Compound 345],0.008 to 0.04 µM
5,CC(C)c1ccc(C2c3[nH]c4ccc(Cl)cc4c3CCN2C(=S)NC2CCCCC2)cc1 (centres unmarked) [Compound 335],0.04 to 0.2 µM
6,COc1ccc(C2c3[nH]c4ccc(C)cc4c3CCN2c2ncccn2)cc1 (centres unmarked) [Compound 342],0.04 to 0.2 µM
7,CCCC(=O)N1CCc2c([nH]c3ccc(Cl)cc23)C1c1ccc(OC)c(OC)c1 (centres unmarked) [Compound 144],0.04 to 0.2 µM
8,Clc1ccc2[nH]c3c(c2c1)CCNC3c1cccnc1 (centres unmarked) [Compound 319],> 1 µM
9,Fc1cccc(C2NCCc3c2[nH]c2ccc(Cl)cc32)c1F (centres unmarked) [Compound 123],0.008 to 0.04 µM
10,c1ccc(COc2ccc3[nH]c4c(c3c2)CCNC4c2ccoc2)cc1 (centres unmarked) [Compound 311],> 1 µM
11,Oc1c(F)cccc1C1NCCc2c1[nH]c1ccc(Br)cc21 (centres unmarked) [Compound 380],> 1 µM
12,COc1ccc(C2c3[nH]c4ccc(Cl)cc4c3CCN2C(=O)Nc2ccccc2OC)cc1 (centres unmarked) [Compound 142],0.04 to 0.2 µM
13,Brc1ccc2[nH]c3c(c2c1)CCNC3c1ccc(OCc2ccccc2)cc1 (centres unmarked) [Compound 232],> 1 µM
14,CCNC(=O)N1CCc2c([nH]c3ccc(Cl)cc23)C1c1ccc(OCc2ccccc2)cc1 (centres unmarked) [Compound 221],0.2 to 1 µM
15,Cc1ccc(NC(=S)N2CCc3c([nH]c4ccc(Cl)cc34)C2c2ccc(C(C)C)cc2)cc1 (centres unmarked) [Compound 338],0.2 to 1 µM
16,Clc1ccc2[nH]c3c(c2c1)CCNC3c1ccccc1Cl (centres unmarked) [Compound 197],0.2 to 1 µM
17,COc1ccc(C2c3[nH]c4ccc(Cl)cc4c3CCN2c2cnccn2)cc1 (centres unmarked) [Compound 1],0.008 to 0.04 µM
18,COc1ccc(C2c3[nH]c4ccc(F)cc4c3CCN2C(=O)NC2CCCCC2)cc1 (centres unmarked) [Compound 283],> 1 µM
19,O=C(Oc1ccc(Cl)cc1)N1CCc2c([nH]c3ccc(Cl)cc23)C1c1ccc(OCCN2CCOCC2)cc1 (centres unmarked) [Compound 331],> 1 µM
20,Clc1ccc2[nH]c3c(c2c1)CCN(Cc1ccccc1)C3c1nccs1 (centres unmarked) [Compound 262],> 1 µM
21,CS(=O)(=O)c1ccc(C2c3[nH]c4ccc(Cl)cc4c3CCN2C(=O)N2CCOCC2)cc1 (centres unmarked) [Compound 309],0.008 to 0.04 µM
22,Brc1cccc(C2NCCc3c2[nH]c2ccc(Br)cc32)c1 (centres unmarked) [Compound 213],0.2 to 1 µM
23,Fc1cc(F)cc(C2NCCc3c2[nH]c2ccc(Cl)cc32)c1 (centres unmarked) [Compound 173],0.2 to 1 µM

# Now from value to compound:
row,EC50,SMILES
1,0.008 to 0.04 µM,CCCOC(=O)N1CCc2c([nH]c3ccc(Cl)cc23)C1c1ccc(Cl)cc1 (centres unmarked) [Compound 49]
2,0.008 to 0.04 µM,CCOC(=O)N1CCc2c([nH]c3ccc(Cl)cc23)C1c1ccc(C#N)cc1 (centres unmarked) [Compound 120]
3,0.2 to 1 µM,COC(=O)CCC(=O)N1CCc2c([nH]c3ccc(Cl)cc23)C1c1ccc(OC)cc1 (centres unmarked) [Compound 369]
4,0.008 to 0.04 µM,CCCOC(=O)N1CCc2c([nH]c3ccc(Cl)cc23)C1c1cccc(C(F)(F)F)c1 (centres unmarked) [Compound 79]
5,< 0.008 µM,CCOC(=O)N1CCc2c([nH]c3ccc(Cl)cc23)C1c1ccc(F)c(F)c1 (centres unmarked) [Compound 39]
6,0.2 to 1 µM,CCOC(=O)N1CCc2c([nH]c3ccc(F)cc23)C1c1ccc(Br)cc1 (centres unmarked) [Compound 196]
7,< 0.008 µM,CCOC(=O)N1CCc2c([nH]c3ccc(Cl)cc23)C1c1ccccc1 (centres unmarked) [Compound 38]
8,> 1 µM,COCCOCC(=O)N1CCc2c([nH]c3ccc(Br)cc23)C1c1ccc(C)cc1 (centres unmarked) [Compound 258]
9,0.008 to 0.04 µM,CCCOC(=O)N1CCc2c([nH]c3ccc(Cl)cc23)C1c1ccccc1 (centres unmarked) [Compound 94]
10,< 0.008 µM,CC(C)c1ccc(C2c3[nH]c4ccc(Br)cc4c3CCN2C(=O)Oc2ccc(Cl)cc2)cc1 (centres unmarked) [Compound 354]
11,0.2 to 1 µM,CCOC(=O)N1CCc2c([nH]c3ccc(Cl)cc23)C1c1ccc(-n2ccnc2)cc1 (centres unmarked) [Compound 180]
12,< 0.008 µM,CCOC(=O)N1CCc2c([nH]c3ccc(Cl)cc23)C1c1cccc(Cl)c1 (centres unmarked) [Compound 20]
13,0.04 to 0.2 µM,CCOC(=O)COc1ccc(C2c3[nH]c4ccc(Cl)cc4c3CCN2C(=O)OCC)cc1 (centres unmarked) [Compound 365]
14,> 1 µM,COCCOCC(=O)N1CCc2c([nH]c3ccc(Br)cc23)C1c1cccc(Cl)c1 (centres unmarked) [Compound 259]
15,< 0.008 µM,CCOC(=O)N1CCc2c([nH]c3ccc(Br)cc23)C1c1cnc(SC)nc1 (centres unmarked) [Compound 393]
16,0.008 to 0.04 µM,CCCOC(=O)N1CCc2c([nH]c3ccc(Cl)cc23)C1c1cccc(Br)c1 (centres unmarked) [Compound 69]
17,0.008 to 0.04 µM,COC(=O)N1CCc2c([nH]c3ccc(Cl)cc23)C1c1ccc(Cl)cc1 (centres unmarked) [Compound 70]
18,0.008 to 0.04 µM,CCOC(=O)N1CCc2c([nH]c3ccc(Br)cc23)C1c1cc(F)ccc1F (centres unmarked) [Compound 115]
19,0.04 to 0.2 µM,ON1CCc2c([nH]c3ccc(Br)cc23)C1c1ccccc1 (centres unmarked) [Compound 138]
20,0.2 to 1 µM,CCOC(=O)N1CCc2c([nH]c3ccc(Cl)cc23)C1Cc1ccccc1 (centres unmarked) [Compound 226]
21,< 0.008 µM,CCSC(=S)N1CCc2c([nH]c3ccc(Cl)cc23)C1c1ccc(OC)cc1 (centres unmarked) [Compound 383]
22,< 0.008 µM,CCOC(=O)N1CCc2c([nH]c3ccc(Cl)cc23)C1c1ccc(F)cc1 (centres unmarked) [Compound 23]

# Same assay, conditions: Homo sapiens, HeLa cells, hypoxic conditions (1% O2)
row,SMILES,EC50
1,Clc1ccc2[nH]c3c(c2c1)CCNC3CCc1ccccc1 (centres unmarked) [Compound 416],< 0.008 µM
2,CCOC(=O)N1CCc2c([nH]c3ccc(Cl)cc23)C1C(C)Cc1ccc2c(c1)OCO2 (centres unmarked) [Compound 553],0.2 to 1 µM
3,O=C(Oc1ccc(F)cc1)N1CCc2c([nH]c3ccc(Cl)cc23)C1c1ccc(OCCCCCl)cc1 (centres unmarked) [Compound 719],< 0.008 µM
4,CN1CCN(CCCCOc2ccc(C3c4[nH]c5ccc(Cl)cc5c4CCN3C(=O)Oc3ccc(Cl)cc3)cc2)CC1 (centres unmarked) [Compound 704],0.04 to 0.2 µM
5,COc1ccc(OC(=O)N2CCc3c([nH]c4ccc(Cl)cc34)C2c2ccc(OCCCN(C)C)cc2)cc1 (centres unmarked) [Compound 501],0.04 to 0.2 µM
6,CN1CCN(CCCCCCOc2ccc(C3c4[nH]c5ccc(Cl)cc5c4CCN3C(=O)Oc3ccc(F)cc3)cc2)CC1 (centres unmarked) [Compound 778],< 0.008 µM
7,O=C(Oc1ccc(Cl)cc1)N1CCc2c([nH]c3ccc(Cl)cc23)C1c1ccc(OCCCCCCNCCO)cc1 (centres unmarked) [Compound 782],< 0.008 µM
8,CCOC(=O)N1CCc2c([nH]c3ccc(Cl)cc23)C1CC(C)SC (centres unmarked) [Compound 442],0.008 to 0.04 µM
9,O=C(Oc1ccc(Cl)cc1)N1CCc2c([nH]c3ccc(Cl)cc23)C1c1ccc(OCCCI)cc1 (centres unmarked) [Compound 617],0.008 to 0.04 µM
10,O=C(Oc1ccc(F)cc1)N1CCc2c([nH]c3ccc(Cl)cc23)C1c1ccc(OCCCCCCN2CCCCC2)cc1 (centres unmarked) [Compound 777],< 0.008 µM
11,O=C(Oc1ccc(F)cc1)N1CCc2c([nH]c3ccc(Cl)cc23)C1c1ccc(OCCCCNCCO)cc1 (centres unmarked) [Compound 735],< 0.008 µM

# The next lines start with the values.
row,EC50,SMILES
1,0.008 to 0.04 µM,COC(=O)c1ccc(C2c3[nH]c4ccc(Br)cc4c3CCN2C(=O)Oc2ccccc2Cl)cc1 (centres unmarked) [Compound 593]
2,0.2 to 1 µM,CCOC(=O)N1CCc2c([nH]c3ccc(Cl)cc23)C1c1ccc(C(=O)NCCCn2ccnc2)cc1 (centres unmarked) [Compound 533]
3,0.04 to 0.2 µM,CCOC(=O)N1CCc2c([nH]c3ccc(Cl)cc23)C1c1ccc(C(=O)N2CCN(C)CC2)cc1 (centres unmarked) [Compound 498]
4,0.04 to 0.2 µM,CCOC(=O)N1CCc2c([nH]c3ccc(Br)cc23)C1c1ccc(C(=O)NC)cc1 (centres unmarked) [Compound 480]
5,0.008 to 0.04 µM,CC(C)OC(=O)N1CCc2c([nH]c3ccc(Cl)cc23)C1c1ccc(OCCCN(C)C)cc1 (centres unmarked) [Compound 459]
6,0.04 to 0.2 µM,CC(C)C(=O)Nc1ccc(C2c3[nH]c4ccc(Cl)cc4c3CCN2C(=O)Oc2ccc(Cl)cc2)cc1 (centres unmarked) [Compound 482]

# Same assay, conditions: Homo sapiens, HeLa cells, hypoxic conditions (1% O2, 5% CO2)
row,EC50,SMILES
1,0.008 to 0.04 µM,O=C(Oc1ccc(Cl)cc1)N1CCc2c([nH]c3ccc(Cl)cc23)C1c1ccc(OCC(O)Cn2ccnc2)cc1 (centres unmarked) [Compound 867]
2,< 0.008 µM,O=C(Oc1ccccc1Cl)N1CCc2c([nH]c3ccc(Cl)cc23)C1c1ccc(OCCCn2cncn2)cc1 (centres unmarked) [Compound 926]
3,0.008 to 0.04 µM,O=C(Oc1ccc(F)cc1)N1CCc2c([nH]c3ccc(Cl)cc23)C1c1ccc(OCCn2cccn2)cc1 (centres unmarked) [Compound 836]
4,0.008 to 0.04 µM,COc1ccc(OC(=O)N2CCc3c([nH]c4ccc(Cl)cc34)C2c2ccc(OCCCCl)cc2)cc1 (centres unmarked) [Compound 944]
5,< 0.008 µM,O=C(Oc1ccc(F)cc1)N1CCc2c([nH]c3ccc(Cl)cc23)C1c1ccc(OCC(O)Cn2ccnn2)cc1 (centres unmarked) [Compound 941]
6,0.04 to 0.2 µM,CS(=O)(=O)Nc1ccc(C2c3[nH]c4ccc(Cl)cc4c3CCN2C(=O)Oc2ccc(Cl)cc2)cc1 (centres unmarked) [Compound 974]

row,SMILES,EC50
1,CN1CCCC(COc2ccc(C3c4[nH]c5ccc(Cl)cc5c4CCN3C(=O)Oc3ccc(F)cc3)cc2)C1 (centres unmarked) [Compound 932],< 0.008 µM
2,O=C(Oc1ccc(F)cc1)N1CCc2c([nH]c3ccc(Cl)cc23)C1c1ccc(OCC(O)CN2CCSCC2)cc1 (centres unmarked) [Compound 925],< 0.008 µM
3,O=C(Oc1ccc(Cl)cc1)N1CCc2c([nH]c3ccc(Cl)cc23)C1c1ccc(OCC(O)CN2CCN(CCO)CC2)cc1 (centres unmarked) [Compound 960],0.008 to 0.04 µM
4,CC(=O)N1CCN(CCCOc2ccc(C3c4[nH]c5ccc(Cl)cc5c4CCN3C(=O)Oc3ccc(F)cc3)cc2)CC1 (centres unmarked) [Compound 988],< 0.008 µM
